Eight compounds from ChEMBL document CHEMBL1201862, “PubChem BioAssay data set” (2004) can be followed below.

Each structure is given as a SMILES string.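 These data come from cells grown in 96-well plates and exposed to compound for 48 hours at five concentrations. GI50 is the concentration that inhibits growth by half.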 Active and inactive are the calls of the source. No stated cut-off is given here; in the data, active = GI50 up to about 1.1 µM and inactive = higher.

What all share (test): NCI anticancer screen, dose series, 48 h
Assay [1] has as its system A498.
Assay [2] relates to CCRF-CEM.
Assay [3] relates to COLO 205.
Assay [4] has as its system EKVX.
Assay [5] relates to HCT-15.
Assay [6] has as its system HOP-62.
Assay [7] concerns Hs-578T.
For assay [8], the system named is MDA-MB-435.
The test system of assay [9] is MOLT-4.
The subject of assay [10] is NCI-H226.
In assay [11] the test system is NCI-H23.
The subject of assay [12] is NCI/ADR-RES.
Assay [13] concerns RPMI-8226.
Assay [14] relates to SK-MEL-2.
Assay [15] has as its system SK-OV-3.
The test system of assay [16] is SN12C.
Assay [17] deals with SR.
The test system of assay [18] is SW-620.
Assay [19] relates to UACC-257.

As for `Clc1ccc2c(c1)N(CCCN1CCCC13CCCCC3)c1ccccc1S2`, the GI50 in [1] was 16 µM (inactive); in assay [2], 4.06 µM (inactive); in [3], > 39.2 µM (inactive); in [4], 11.9 µM (inactive); in assay [5] it was 17.1 µM; in assay [6] it was 16.3 µM (inactive). For the same compound, the GI50 is 13.5 µM (inactive) in assay [7]; 14.2 µM (inactive) in assay [8]; 3.76 µM (inactive) in assay [9]; 35.3 µM (inactive) in [10]; 16.1 µM (inactive) in assay [11]; 14.7 µM (inactive) in assay [12]. Further, the GI50 in assay [13] was 2.79 µM (inactive); in [14] it was 9.77 µM (inactive); in assay [15], 20.8 µM (inactive); in [16], 13.4 µM (inactive); in [17], 4.39 µM (inactive); in assay [18] it was 14.9 µM (inactive). In assay [19], the GI50 is 10.3 µM (inactive).

For the compound `O=C1CC(Cl)c2c1csc2Br` (configuration not stated), the GI50 was 24.1 µM (inactive) in assay [1]; 2.65 µM (inactive) in [2]; 15.2 µM (inactive) in assay [3]; 20.3 µM (inactive) in [4]; 12.9 µM in assay [5]; 14.5 µM (inactive) in assay [6]. For the same compound, the GI50 in assay [7] is 21.6 µM (inactive); in assay [8] it was 15.1 µM (inactive); in assay [9], 3.66 µM (inactive); in assay [10], 29.9 µM (inactive); in assay [11] it was 15.3 µM (inactive); in [12], 20.9 µM (inactive). In addition, the GI50 was 1.03 µM (active) in assay [13]; 15.1 µM (inactive) in assay [14]; 18.6 µM (inactive) in assay [15]; 17.6 µM (inactive) in assay [16]; 4.56 µM (inactive) in assay [17]; 3.48 µM (inactive) in [18]. Besides, in assay [19], the GI50 was 16.3 µM (inactive).

Consider `Cc1c(F)c(N)c2c(=O)cc(-c3ccc(NC(=O)C(N)CCCNC(=N)N)c(F)c3)oc2c1F` (configuration not stated), for which the GI50 is 0.0615 µM (active) in assay [1]; > 88.3 µM (inactive) in [2]; 23.8 µM (inactive) in [3]; 17.2 µM (inactive) in [4]; 19.7 µM in assay [5]; > 52.2 µM (inactive) in assay [6]. Moreover, the GI50 in assay [7] was 28.5 µM (inactive); in assay [8] it was 27.2 µM (inactive); in [9], 34.6 µM (inactive); in assay [10], 0.111 µM (active); in assay [11] it was 27.9 µM (inactive); in assay [12] it was 23.9 µM (inactive). Moreover, the GI50 is > 33.5 µM (inactive) in assay [13]; 23.4 µM (inactive) in [14]; > 44.5 µM (inactive) in assay [15]; 17.1 µM (inactive) in assay [16]; 43 µM (inactive) in [17]; > 61.5 µM (inactive) in [18]. The GI50 in [19] was 0.262 µM (active).

As for `COc1ccccc1NC(=O)CC(=O)N1N=C(N2c3ccccc3Sc3ccccc32)CC1c1ccccc1` (configuration not stated), the GI50 in assay [1] is > 100 µM (inactive); in assay [2] it was > 100 µM (inactive); in [3], > 100 µM (inactive); in [4], > 100 µM (inactive); in assay [5], above 100 µM; in assay [6], > 100 µM (inactive). The GI50 in [7], in assay [8], in assay [9], in assay [10], in [11] and in assay [12] was > 100 µM (inactive) throughout. The GI50 in [13], in assay [14], in assay [15], in assay [16], in assay [17] and in [18] was > 100 µM (inactive) throughout. The GI50 in assay [19] was > 100 µM (inactive).

Turning to `O=c1n(-c2ccc(Cl)c(Cl)c2)c(=O)n(-c2ccc(Cl)c(Cl)c2)c(=O)n1-c1ccc(Cl)c(Cl)c1`, the GI50 was 2.73 µM (inactive) in assay [1]; 1.15 µM (inactive) in [2]; 0.719 µM (active) in assay [3]; 3.5 µM (inactive) in assay [4]; 1.58 µM in [5]; 3.67 µM (inactive) in [6]. For the same compound, the GI50 was 2.96 µM (inactive) in assay [7]; 3.93 µM (inactive) in assay [8]; 1.87 µM (inactive) in [9]; 2.82 µM (inactive) in [10]; 1.5 µM (inactive) in assay [11]; 3.1 µM (inactive) in [12]. The GI50 was 0.558 µM (active) in assay [13]; 2.15 µM (inactive) in assay [14]; 2.11 µM (inactive) in assay [15]; 3.09 µM (inactive) in [16]; 3.55 µM (inactive) in assay [17]; 3.15 µM (inactive) in assay [18]. Further, the GI50 in assay [19] is 0.736 µM (active).

As for `O=C1C(Cl)=C(N(C(=O)c2ccccc2)C(=O)c2ccccc2)C(=O)c2ccccc21`, the GI50 is > 100 µM (inactive) in [1]; 2.84 µM (inactive) in assay [2]; 16.1 µM (inactive) in assay [3]; 5.74 µM (inactive) in [4]; 2.94 µM in assay [5]; 49 µM (inactive) in assay [6]. The GI50 in [7] is 4.8 µM (inactive); in assay [8], 12.6 µM (inactive); in [9], 55 µM (inactive); in assay [10], > 100 µM (inactive); in assay [11], 5.42 µM (inactive); in assay [12], 29.2 µM (inactive). Also, the GI50 in assay [13] was 2.05 µM (inactive); in assay [14], 11.4 µM (inactive); in [15], 40.6 µM (inactive); in assay [16] it was 18.3 µM (inactive); in [17] it was 15.5 µM (inactive); in [18], 5.15 µM (inactive). Further, in assay [19], the GI50 is 14.9 µM (inactive).

On to `N#CC1=C(N)OC(c2ccc([N+](=O)[O-])cc2)C1(C#N)C#N` (configuration not stated), for which the GI50 was 14.4 µM (inactive) in [1]; 2.57 µM (inactive) in [2]; 5.94 µM (inactive) in [3]; 14.2 µM (inactive) in [4]; 10.5 µM in assay [5]; 20.7 µM (inactive) in assay [6]. Also, the GI50 in [7] is 25.9 µM (inactive); in assay [8], 17 µM (inactive); in [9], 33.7 µM (inactive); in [10], 18.3 µM (inactive); in assay [11], 15.3 µM (inactive); in assay [12], 19.6 µM (inactive). Besides, the GI50 was 7.78 µM (inactive) in [13]; 14.6 µM (inactive) in [14]; 26.2 µM (inactive) in assay [15]; 14.5 µM (inactive) in assay [16]; 3.97 µM (inactive) in [17]; 13.2 µM (inactive) in [18]. Besides, the GI50 in [19] is 13.1 µM (inactive).

As to `O=C(CCl)Nc1cc(Cl)c(Cl)cc1Cl`, the GI50 is 5.15 µM (inactive) in assay [1]; 0.966 µM (active) in assay [2]; 1.85 µM (inactive) in assay [3]; 2.54 µM (inactive) in [4]; 2.09 µM in [5]; 2.15 µM (inactive) in assay [6]. In addition, the GI50 is 3.4 µM (inactive) in [7]; 1.38 µM (inactive) in assay [8]; > 10 µM (inactive) in assay [9]; 1.01 µM (active) in assay [10]; 1.7 µM (inactive) in assay [11]; 2.05 µM (inactive) in assay [12]. The GI50 in assay [13] was 4.74 µM (inactive); in assay [14], 1.64 µM (inactive); in assay [15] it was > 10 µM (inactive); in [16], 1.52 µM (inactive); in assay [17] it was 0.644 µM (active); in [18], 2.58 µM (inactive). The GI50 in assay [19] is 1.84 µM (inactive).
